Data set [1] concerns primary human intestinal cells. The experiment in a line: Intestinal barrier strength by transepithelial electrical resistance (TEER), primary intestinal cells in different media. In kind it is cell-based. The following applies: after 8 days in culture, FIG. 3. From the text:
It was clear that that serum free intestinal differentiation media compromised the metabolic functionality of primary liver cells, thus would not be appropriate for the co-culture of these two cell types. Therefore, the inventors investigated which components of serum free intestinal differentiation media were important for intestinal barrier function.

Data set [2] concerns primary liver cells. The experiment in a line: CYP3A4 metabolic rate of primary liver cells co-cultured with primary intestinal cells in dual organ plate. In kind it is cell-based, human. To be noted: co-culture with primary intestinal cells; threshold 1 pmol/min/million cell; by day 6 in culture; FIG. 4.

The results in this text go back to patent publication US20250123273A1, “SYSTEM TO CALCULATE HUMAN ORAL BIOAVAILABILITY” (CN Bio Innovations Limited, priority 2023, published 2025).

For the compound `C[C@]12CCC(=O)C=C1CC[C@@H]1[C@@H]2[C@@H](O)C[C@@]2(C)[C@H]1CC[C@]2(O)C(=O)CO` [hydrocortisone, reference compound], the “TEER (intestinal barrier strength)” value in data set [1] is “help maintain primary intestinal cell barrier function”.
Regarding epidermal growth factor [EGF], the CYP3A4 metabolic rate result in data set [2] is “compromises the metabolic functionality”. The “TEER (intestinal barrier strength)” value in data set [1] is “critical for primary intestinal cell barrier function”.
